Assay results from patent US9822112B2, “Heteroarylene-bridged benzodiazepine dimers, conjugates thereof, and methods of making and using” (priority 2015, dated 2017).

Legend:
Test in all cases: Cytotoxic activity of dimers (ATP luminescence or MTS cell proliferation assay)
Format in all cases: cell-based
[1] = tested on: N87 gastric cancer cell line; details: N87 cells; free dimer; 72 h incubation
Description: (§1) The cytotoxic activity of dimers of this invention can be tested against various cancer cell lines, such as H226 lung cancer, DMS 79 lung cancer, H187 lung cancer, N87 gastric cancer, 786-O renal cancer, and/or OVCAR3 ovarian cancer cell lines. The ability of dimers to inhibit cell proliferation can be measured by either an ATP luminescence assay or an MTS cell proliferation assay.
(§2) This is a general procedure for an ATP luminescence assay: Cells are seeded at 1×10^3 cells/well in 96-well plates for 3 h for ATP CellTiterGlo™ assays, respectively. Serial dilutions (1:3) of compounds are added to the wells. Plates are allowed to incubate for 72 h. A CellTiterGlo™ cell viability kit from Promega is used to measure ATP content of cells treated with test compounds following manufacturer's instruction. A decrease in the ATP content is a measure of decrease in cellular viability. The EC50 value—the concentration at which an agent reduces cell viability by 50% of the maximum effect—can be calculated using PRISM™ software, version 5.0 (GraphPad Software, La Jolla, Calif., USA).
(§3) The MTS cell proliferation assay was performed as follows: CellTiter 96 Aqueous Non-Radioactive Cell proliferation Kit from Promega (Madison, Wis.) is used to determine the number of viable cells in cell proliferation assay. Tumor cells are plated at certain seeding densities in sterile 384-well black clear bottom Matrix plates at 40 μL per well and incubated overnight at 37° C. in 5% CO2 before assaying. On the next day, one set of cell plates (10 plates) is used to determine time zero cell density, and 3-(4,5-dimethylthiazol-2-yl)-5-(3-carboxymethoxyphenyl)-2-(4-sulfophenyl)-2H-tetrazolium is added at 4 μL/well into 10 plates followed by incubation at 37° C. in 5% CO2 for three hours. This tetrazolium reagent is bioreduced by […] to form a formazan product which is soluble in aqueous solution. Absorbance at 490 nm is measured on an Envision reader (Perkin Elmer, Boston, Mass.). On the same day, compounds are added into remaining cell plates (T72 plates) and incubated at 37° C. in 5% CO2. After 72 hours, 4 μL MTS reagents are then added into those cell plates. The plates are further incubated at 37° C. in 5% CO2 for three hours and the absorbance values at A490 were measured on an Envision reader.

[2] = tested on: H187 lung cancer cell line; details: Homo sapiens, NCI-H187; H187 cells; free dimer; 72 h incubation
Description: as §1, §2, §3

[3] = tested on: DMS 79 lung cancer cell line; details: Homo sapiens; DMS 79 cells; free dimer; 72 h incubation
Description: as §1, §2, §3

| Compound | IC50 [1] [nM] | IC50 [2] [nM] | IC50 [3] [nM] |
| --- | --- | --- | --- |
| COc1cc2c(cc1OCc1cc(Cl)cc(COc3cc4c(cc3OC)C(=O)N3Cc5ccccc5C[C@H]3C=N4)n1)N=C[C@@H]1Cc3ccccc3CN1C2=O [IIa-13] | 0.03 |  |  |
| COc1cc2c(cc1OCc1cccc(COc3cc4c(cc3OC)C(=O)N3Cc5ccccc5C[C@H]3C=N4)n1)N=C[C@@H]1Cc3ccccc3CN1C2=O [IIa-01] | 0.02 | 0.001 | 0.001 |
| COc1cc2c(cc1OCc1cc(COc3cc4c(cc3OC)C(=O)N3Cc5ccccc5C[C@H]3C=N4)c3ccccc3n1)N=C[C@@H]1Cc3ccccc3CN1C2=O [IIa-07] | 0.25 |  |  |
| COc1cc2c(cc1OCc1cccc(COc3cc4c(cc3OC)C(=O)N3Cc5ccccc5C[C@H]3CN4)n1)NC[C@@H]1Cc3ccccc3CN1C2=O [IIa-15] | 2.88 |  |  |
| COc1cc2c(cc1OCc1cncc(COc3cc4c(cc3OC)C(=O)N3Cc5ccccc5C[C@H]3C=N4)c1)N=C[C@@H]1Cc3ccccc3CN1C2=O [IIa-06] | 0.14 |  |  |
| COc1cc2c(cc1OCc1cc(CO)cc(COc3cc4c(cc3OC)C(=O)N3Cc5ccccc5C[C@H]3C=N4)n1)N=C[C@@H]1Cc3ccccc3CN1C2=O [IIa-08] | 2.71 |  |  |
| COc1cc2c(cc1OCc1cccc(COc3cc4c(cc3OC)C(=O)N3Cc5cccnc5C[C@@H]3C=N4)n1)N=C[C@@H]1Cc3ccccc3CN1C2=O [Dimer 100] | 0.1 |  |  |
| COc1cc2c(cc1OCc1cc(O)cc(COc3cc4c(cc3OC)C(=O)N3Cc5ccccc5C[C@H]3C=N4)n1)N=C[C@@H]1Cc3ccccc3CN1C2=O [IIa-11] | 4.92 |  |  |
| COc1cc2c(cc1OCc1cccc(COc3cc4c(cc3OC)C(=O)N3Cc5cccnc5C[C@H]3C=N4)n1)N=C[C@@H]1Cc3ccccc3CN1C2=O [IIa-16] | 0.08 |  |  |
| COc1cc2c(cc1OCc1cccc(COc3cc4c(cc3OC)C(=O)N3Cc5cc(N)ccc5C[C@H]3C=N4)n1)N=C[C@@H]1Cc3ccccc3CN1C2=O [IIa-03] | 0.03 | 0.002 | 0.002 |
